Usually IC50 stands for the concentration needed to halve the response being measured.

In one assay the target is T1, CDK2 (Homo sapiens, UniProt P24941).
T1 construct: with Cyclin E
Nature of the assay: cell-free kinase assay, 10-point dose response. The format is biochemical.

For another assay, the target named is T2, CDK5 (Homo sapiens, UniProt Q00535).
T2 construct: with p35
Description: cell-free kinase assay, 10-point dose response. The format is biochemical.

T2 sequence (Q00535 whole entry): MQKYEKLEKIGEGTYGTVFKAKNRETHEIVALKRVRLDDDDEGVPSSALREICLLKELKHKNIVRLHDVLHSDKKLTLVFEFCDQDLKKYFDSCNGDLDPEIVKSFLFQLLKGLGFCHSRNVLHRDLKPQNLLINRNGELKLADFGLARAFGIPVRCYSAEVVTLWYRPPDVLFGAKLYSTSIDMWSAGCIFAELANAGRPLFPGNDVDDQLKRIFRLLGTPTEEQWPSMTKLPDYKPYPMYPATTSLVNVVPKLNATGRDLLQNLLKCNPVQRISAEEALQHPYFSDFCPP
T2 sequence (Q15078 2-307 partner): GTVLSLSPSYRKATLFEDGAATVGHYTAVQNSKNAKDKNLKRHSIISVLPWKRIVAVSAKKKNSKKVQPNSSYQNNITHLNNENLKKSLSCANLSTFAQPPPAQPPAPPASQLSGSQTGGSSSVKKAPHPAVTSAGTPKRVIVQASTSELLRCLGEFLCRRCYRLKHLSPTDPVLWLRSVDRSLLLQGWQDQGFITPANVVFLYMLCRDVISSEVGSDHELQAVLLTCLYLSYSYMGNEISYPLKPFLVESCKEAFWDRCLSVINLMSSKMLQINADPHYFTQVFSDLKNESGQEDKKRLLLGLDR

For `O=C(Cc1ccc2ccccc2c1)Nc1cc(C2CCC2)[nH]n1` [20-223], the figures for the IC50 on CDK2 and at CDK5 were 6 nM and 8.8 nM, respectively.

The record behind these values is paper PMC5797045, “Characterization of CDK(5) inhibitor, 20-223 (aka CP668863) for colorectal cancer therapy” (Oncotarget, 2017).
